Data as given in patent publication US7211588B2, “N-substituted indolyl-3-glyoxylamides, their use as medicaments and process for their preparation” (Zentaris GmbH, priority 2003, dated 2007).
Converted amounts (≈) assume the structure as drawn.

Tests used:
[1] = system: ovarial adeno carcinoma cell line SKOV-3 (ATCC HTB77); assay: XTT proliferation/cytotoxicity test, SK-OV-3; assay type: cell-based; conditions: Homo sapiens, SK-OV-3 cells
Source text: (§1) Substance 1 was investigated for its antiproliferative action in a proliferation test using established tumor cell (D. A. Scuderio et al. Cancer Res. 1988, 48, 4827–4833). The test used determines the cellular dehydrogenase activity and permits a determination of the cell vitality and, indirectly, of the cell count. The cell lines used are the human cervical carcinoma cell line KB/HeLa (ATCC CCL17), the ovarial adeno carcinoma cell line SKOV-3 (ATCC HTB77), the human glioblastoma cell line SF-268 (NCl 503138) and the pulmonary carcinoma cell line NCl-H460 (NCl 503473).

[2] = system: human cervical carcinoma cell line KB/HeLa (ATCC CCL17); assay: XTT proliferation/cytotoxicity test, KB/HeLa; assay type: cell-based; conditions: KB/HeLa cells
Source text: as §1

[3] = system: human glioblastoma cell line SF-268 (NCl 503138); assay: XTT proliferation/cytotoxicity test, SF-268; assay type: cell-based; conditions: SF-268 cells
Source text: as §1

[4] = system: acute myeloid leukemia cell line LT12; assay: XTT proliferation test, LT12; assay type: cell-based; conditions: Rattus norvegicus, LT12 wild-type cells
Source text: as §1, with “503473). Substance 1 was further characterized by testing with regard to multidrug-resistant cell lines as compared with the nonresistant wild-type cell lines. The cell lines tested are the murine cell line L1210, the acute myeloid leukemia cell line LT12 and the resistant lines L1210/mdr and LT12/mdr. Further test systems used are the murine P388 cell line (methylcholanthrene-induced lymphoid neoplasm) and the doxorubicin-resistant P388 cell line.” for “503473).”

resistant line LT12/mdr = assay: XTT proliferation test, LT12mdr; assay type: cell-based; conditions: Rattus norvegicus, multidrug-resistant LT12mdr cells
Source text: as §1, with “503473). Substance 1 was further characterized by testing with regard to multidrug-resistant cell lines as compared with the nonresistant wild-type cell lines. The cell lines tested are the murine cell line L1210, the acute myeloid leukemia cell line LT12 and the resistant lines L1210/mdr and LT12/mdr. Further test systems used are the murine P388 cell line (methylcholanthrene-induced lymphoid neoplasm) and the doxorubicin-resistant P388 cell line.” for “503473).”

[5] = system: doxorubicin-resistant P388 cell line; assay: XTT proliferation test, P388ADR; assay type: cell-based, murine; conditions: Mus musculus, doxorubicin-resistant P388ADR cells
Source text: as §1, with “503473). Substance 1 was further characterized by testing with regard to multidrug-resistant cell lines as compared with the nonresistant wild-type cell lines. The cell lines tested are the murine cell line L1210, the acute myeloid leukemia cell line LT12 and the resistant lines L1210/mdr and LT12/mdr. Further test systems used are the murine P388 cell line (methylcholanthrene-induced lymphoid neoplasm) and the doxorubicin-resistant P388 cell line.” for “503473).”

[6] = system: resistant line L1210/mdr (L1210VCR); assay: XTT proliferation test, L1210VCR; assay type: cell-based, murine; conditions: Mus musculus, resistant L1210VCR cells
Source text: as §1, with “503473). Substance 1 was further characterized by testing with regard to multidrug-resistant cell lines as compared with the nonresistant wild-type cell lines. The cell lines tested are the murine cell line L1210, the acute myeloid leukemia cell line LT12 and the resistant lines L1210/mdr and LT12/mdr. Further test systems used are the murine P388 cell line (methylcholanthrene-induced lymphoid neoplasm) and the doxorubicin-resistant P388 cell line.” for “503473).”

murine cell line L1210 = assay: XTT proliferation test, L1210; assay type: cell-based; conditions: Mus musculus, L1210 wild-type cells
Source text: as §1, with “503473). Substance 1 was further characterized by testing with regard to multidrug-resistant cell lines as compared with the nonresistant wild-type cell lines. The cell lines tested are the murine cell line L1210, the acute myeloid leukemia cell line LT12 and the resistant lines L1210/mdr and LT12/mdr. Further test systems used are the murine P388 cell line (methylcholanthrene-induced lymphoid neoplasm) and the doxorubicin-resistant P388 cell line.” for “503473).”

[7] = system: murine P388 cell line (methylcholanthrene-induced lymphoid neoplasm); assay: XTT proliferation test, P388; assay type: cell-based; conditions: Mus musculus, P388 wild-type cells
Source text: as §1, with “503473). Substance 1 was further characterized by testing with regard to multidrug-resistant cell lines as compared with the nonresistant wild-type cell lines. The cell lines tested are the murine cell line L1210, the acute myeloid leukemia cell line LT12 and the resistant lines L1210/mdr and LT12/mdr. Further test systems used are the murine P388 cell line (methylcholanthrene-induced lymphoid neoplasm) and the doxorubicin-resistant P388 cell line.” for “503473).”

[8] = system: pulmonary carcinoma cell line NCl-H460 (NCl 503473); assay: XTT proliferation/cytotoxicity test, NCI-H460; assay type: cell-based; conditions: Homo sapiens, NCI-H460 cells
Source text: as §1

SMILES: O=C(C(=O)N(C(=O)c1ccccc1)c1ccc2ncccc2c1)c1cn(Cc2ccc(Cl)cc2)c2ccccc12 [Compound 1, N-{2-[1-(4-Chlorobenzyl)-1H-indol-3-yl]-2-oxoacetyl}-N-quinolin-6-ylbenzamide]
- IC50 [1]: 0.139 µg/mL (≈ 0.256 µM)
- IC50 [2]: 0.17 µg/mL (≈ 0.312 µM)
- IC50 [3]: 0.261 µg/mL (≈ 0.48 µM)
- IC50 [4]: 0.226 µg/mL (≈ 0.415 µM)
- IC50 (resistant line LT12/mdr): 0.277 µg/mL (≈ 0.509 µM)
- IC50 [5]: 0.252 µg/mL (≈ 0.463 µM)
- IC50 [6]: 0.577 µg/mL (≈ 1.06 µM)
- IC50 (murine cell line L1210): 0.255 µg/mL (≈ 0.469 µM)
- IC50 [7]: 0.219 µg/mL (≈ 0.403 µM)
- melting point: 213 °C
- IC50 [8]: 0.222 µg/mL (≈ 0.408 µM)
